Test: Dynamic Vapor Sorption (DVS), two sorption-desorption cycles 0-95-0% RH
Format: physicochemical
Details: for phase change from anhydrate to dihydrate, significant change in moisture (sorption curves): DVS sorption cycles
Method: Approximately 2-16 mg of the sample was weighed into a metal receptacle, which was then released of static electricity. The metal receptacle was positioned in a Surface Measurements System Ltd DVS Advantage instrument. The sample was subjected to two consecutive sorption-desorption cycles, each running from 0-95-0% relative humidity (% RH). One cycle consisted of 21 steps, those between 0-90% RH were taken in 10% RH each. At each stage the following equilibrium criteria was used: dm/dt over 5 minutes <0,002% and the minimum and maximum time at each stage were 10 and 360 min respectively.

Compound: CCCCC1(CCCC)CN(c2ccccc2)c2cc(SC)c(OCC(=O)N[C@@H](C(=O)NCC(=O)O)c3ccccc3)cc2S(=O)(=O)C1 [crystal modification C, N-{(2R)-2-[({[3,3-dibutyl-7-(methylthio)-1,1-dioxido-5-phenyl-2,3,4,5-tetrahydro-1,5-benzothiazepin-8-yl]oxy}acetyl)amino]-2-phenylethanolyl}-glycine]
- phase change from anhydrate to dihydrate, significant change in moisture (sorption curves) (listed as C): 60-70 % RH

Compound: CCCCC1(CCCC)CN(c2ccccc2)c2cc(SC)c(OCC(=O)N[C@@H](C(=O)NCC(=O)O)c3ccccc3)cc2S(=O)(=O)C1 [crystal modification F, N-{(2R)-2-[({[3,3-dibutyl-7-(methylthio)-1,1-dioxido-5-phenyl-2,3,4,5-tetrahydro-1,5-benzothiazepin-8-yl]oxy}acetyl)amino]-2-phenylethanolyl}-glycine]
- moisture uptake (DVS isotherm) (weight % water versus % RH, two consecutive DVS cycles, FIG. 10): linear function of % RH

Compound: CCCCC1(CCCC)CN(c2ccccc2)c2cc(SC)c(OCC(=O)N[C@@H](C(=O)NCC(=O)O)c3ccccc3)cc2S(=O)(=O)C1 [crystal modification L, N-{(2R)-2-[({[3,3-dibutyl-7-(methylthio)-1,1-dioxido-5-phenyl-2,3,4,5-tetrahydro-1,5-benzothiazepin-8-yl]oxy}acetyl)amino]-2-phenylethanolyl}-glycine]
- phase change from anhydrate to dihydrate, significant change in moisture (sorption curves) (listed as L): 40-50 % RH

Compound: CCCCC1(CCCC)CN(c2ccccc2)c2cc(SC)c(OCC(=O)N[C@@H](C(=O)NCC(=O)O)c3ccccc3)cc2S(=O)(=O)C1 [crystal modification N, N-{(2R)-2-[({[3,3-dibutyl-7-(methylthio)-1,1-dioxido-5-phenyl-2,3,4,5-tetrahydro-1,5-benzothiazepin-8-yl]oxy}acetyl)amino]-2-phenylethanolyl}-glycine]
- moisture amount where the four DVS curves coincide (dihydrate) (DVS, sorption and desorption curves of two cycles): around 5 % w/w
